Columns and labels:
[1] = target: Recombinant human glycogen synthase kinase 3 beta (Homo sapiens, UniProt P49841); assay: GSK-3 beta inhibition assay; type: biochemical; details: 0.5 h, percentage of enzyme activity; for remaining activity at 25 µM: compound at 25 μM; for remaining activity at 50 µM: compound at 50 μM
Experimental: GSK-3 beta Inhibition Assay
The GSK-3 beta activity of the compounds of formula (I) according to the present invention was determined by incubation of a mixture of recombinant human GSK-3 enzyme, a phosphate source and GSK-3 substrate in the presence and in the absence of the corresponding test compound, and by measuring the GSK-3 activity of this mixture. The compounds where tested at final concentrations of 25 and 50 μM.
Recombinant human glycogen synthase kinase 3 beta was assayed in MOPS 11 mM, pH 7.4, EDTA 0.2 mM, EGTA 1.25 mM, MgCl2 26.25 mM and sodium orthovanadate 0.25 mM in the presence of 62.5 μM of Phospho-Glycogen Synthase Peptide-2 (GS-2), 0.5 μCi gamma-^33P-ATP and unlabelled ATP at a final concentration of 12.5 μM. The final assay volume was 20 μl. After incubation for 30 minutes at 30° C., 15 μl aliquots were spotted onto P81 phosphocellulose papers. Filters were washed four times for at least 10 minutes each and counted with 1.5 ml of scintillation cocktail in a scintillation counter.
(§1) The compounds of formula (I) of the present invention where submitted to the above indicated assays, in order to determine both their GSK-3 inhibition activity and BACE activity inhibition. The results are indicated in Table I and Table II, in percentage of the respective enzyme activity.

[2] = target: T1, rhBACE-1 β-Secretase recombinant human (Homo sapiens, UniProt P56817); assay: BACE assay (FRET); type: biochemical; details: percentage of enzyme activity
T1 construct: purchased R&D Systems 931-AS
Description: The aim of this assay is to determine if a compound, either synthetic or of marine origin, is a BACE-1 inhibitor, to avoid the formation of Aβ. This assay is based on FRET technology (Fluorescence Resonance Energy Transfer). FRET is used to measure cleavage of a peptide substrate, among other uses. […] When a substrate peptide cleavage occurs, the energy balance is broken and all the donor fluorescence can be observed. The increase in fluorescence is linearly related to the rate of proteolysis (Gordon, G W et al., 1998). In this assay the reaction occurs between an enzyme, purified BACE-1, and a fluorogenic peptidic substrate who present the “Swedish mutation”. The peptide cleavage by BACE-1 produces fluorescence energy and enzymatic activity can be quantified.
The reagents which are used in this assay are the following: • rhBACE-1 β-Secretase recombinant human (R&D Systems. Ref. 931-AS). • Fluorogenic Peptide Substrate IV (R&D Systems. Ref. ES004). • Beta-SECRETASE INHIBITOR H-4848. (BACHEM. Ref. H-4848.0001). • Sodium acetate.
The assay is carried out in a 96 wells microplate. The final concentration of substrate is 3.5 μM per well, and the enzyme concentration is 0.5 μg/ml. The final volume of the assay is 100 μl per well and all reagents are diluted in Reaction Buffer. The compounds are tested at a concentration of 10^−5 and 10^−6 M. The control in the assay is the commercial inhibitor β-Secretase inhibitor H-4848 from BACHEM, which is tested at 300 nM. All the samples and controls are studied by duplicate.
The plate is mixed gently and changes in the fluorescence are measured using a fluorimeter plate reader, with 320 nm excitation filter and 405 nm emission filter. The temperature should be preferably maintained between 25 and 30° C. Measurements are carried out every ten minutes during an hour. The first measure is subtracted from the last to calculate the fluorescence increase, evaluating the enzymatic activity. The 100% activity is calculated as the mean of the results of wells without sample or inhibitor.
In the cases where abnormal effects in fluorescence were detected, BACE inhibition activity was assayed using BACE-1 (beta-Secretase) FRET ASSAY KIT (Invitrogen, Ref. P2985). Fluorescence was measured with a fluorimeter plate reader, with 544 nm excitation filter and 580 nm emission filter.
as §1

T1 sequence (P56817 46-457 limits assumed): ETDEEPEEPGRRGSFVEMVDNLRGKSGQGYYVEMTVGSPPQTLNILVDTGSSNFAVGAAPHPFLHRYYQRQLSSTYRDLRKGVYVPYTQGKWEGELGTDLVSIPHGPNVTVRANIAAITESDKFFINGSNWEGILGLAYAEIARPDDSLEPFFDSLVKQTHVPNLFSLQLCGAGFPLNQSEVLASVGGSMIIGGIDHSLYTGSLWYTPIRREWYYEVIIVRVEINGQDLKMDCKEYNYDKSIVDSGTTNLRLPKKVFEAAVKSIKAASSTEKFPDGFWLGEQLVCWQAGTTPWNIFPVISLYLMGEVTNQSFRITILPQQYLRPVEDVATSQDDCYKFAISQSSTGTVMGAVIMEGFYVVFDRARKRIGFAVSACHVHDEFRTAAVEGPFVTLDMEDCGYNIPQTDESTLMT
Chain of Recombinant human glycogen synthase kinase 3 beta (P49841 whole entry): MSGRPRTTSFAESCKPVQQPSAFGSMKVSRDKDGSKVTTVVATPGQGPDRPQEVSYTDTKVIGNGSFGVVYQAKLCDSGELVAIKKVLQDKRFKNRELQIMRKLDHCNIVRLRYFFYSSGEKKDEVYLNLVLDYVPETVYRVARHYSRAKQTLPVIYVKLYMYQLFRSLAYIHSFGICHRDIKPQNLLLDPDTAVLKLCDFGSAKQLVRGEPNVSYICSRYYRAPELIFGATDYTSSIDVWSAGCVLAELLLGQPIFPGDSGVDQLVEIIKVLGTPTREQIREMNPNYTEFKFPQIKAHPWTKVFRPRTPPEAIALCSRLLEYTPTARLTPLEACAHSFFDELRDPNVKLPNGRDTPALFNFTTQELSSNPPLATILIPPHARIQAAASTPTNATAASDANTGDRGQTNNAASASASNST

| remaining activity at 25 µM [1] | remaining activity at 50 µM [1] | % of BACE activity ([2]; compound at 1 μM) | % of BACE activity ([2]; compound at 10 μM) | SMILES |
| --- | --- | --- | --- | --- |
| 24.6% | 1.71% | 50 ± 4% | 6.5 ± 1% | COC(=O)c1ccc(OC)c(N(CC=C(C)CCC=C(C)COC2CCCCO2)CC=C(C)CCC=C(C)COC2CCCCO2)c1 (centres unmarked) [Compound 37, 3-{Bis-[3,7-dimethyl-8-(tetrahydro-pyran-2-yloxy)-octa-2,6-dienyl]-amino}-4-methoxy-benzoic acid methyl ester] |
| 23.6% | 2.51% | 81.5 ± 9% | 35 ± 10% | COc1ccc(C(=O)N2CCN(CC=Cc3ccccc3)CC2)cc1N(CC=C(C)CCC=C(C)C)CC=C(C)CCC=C(C)C [Compound 38, {3-[Bis-(3,7-dimethyl-octa-2,6-dienyl)-amino]-4-methoxy-phenyl}-[4-(3-phenyl-allyl)-piperazin-1-yl]-methanone] |
| 55.1% | 13.2% | 100% | 100% | COc1ccc(C(=O)N2CCN(CCO)CC2)cc1N(CC=C(C)CCC=C(C)C)CC=C(C)CCC=C(C)C [Compound 39, {3-[Bis-(3,7-dimethyl-octa-2,6-dienyl)-amino]-4-methoxy-phenyl}-[4-(2-hydroxy-ethyl)-piperazin-1-yl]-methanone] |
| 88.9% | 98.4% | 73 ± 2% | 75 ± 9% | COc1ccc(C(=O)NC(=N)n2cccn2)cc1N(C/C=C(\C)CCC=C(C)C)C/C=C(\C)CCC=C(C)C [Compound 41] |
| 103% | 98.2% | 88.3 ± 3.8% | 27.5 ± 9.2% | CCCOc1ccc(C(=O)OC)cc1NC/C=C(\C)CC/C=C(\C)CCC=C(C)C [Compound 43] |
| 27.9% | 19.8% | 122.5 ± 23.3% | 115.5 ± 29% | COc1ccc(C(=O)NCCc2c[nH]cn2)cc1N(C/C=C(\C)CCC=C(C)C)C/C=C(\C)CCC=C(C)C [Compound 46] |
| 105% | 97.9% | 100% | 36.5 ± 0.7% | CC(C)=CCC/C(C)=C/CC/C(C)=C/CNc1cc(C(=O)O)ccc1O [Compound 48] |

| SMILES | remaining activity at 25 µM [1] | remaining activity at 50 µM [1] | % of BACE activity ([2]; compound at 1 μM) | % of BACE activity ([2]; compound at 10 μM) |
| --- | --- | --- | --- | --- |
| CCC(C)Oc1ccc(C(=O)OC)cc1NCC=C(C)CCC=C(C)CCC=C(C)C (centres unmarked) [Compound 40, 4-sec-Butoxy-3-(3,7,11-trimethyl-dodeca-2,6,10-trienylamino)-benzoic acid methyl ester] | 111% | 99.4% | 100% | 100% |

Source: US20100041665A1, “N-PHENYL-PRENYLAMINE DERIVATIVES FOR THE TREATMENT OF COGNITIVE, NEURODEGENERATIVE OR NEURONAL DISEASES OR DISORDERS” (NOSCIRA, S.A., priority 2006, published 2010)
